# Laboratory results as given in US20110287442A1, “Tumor Antigen Protein, Gene, or Peptides from Topoisimerase 2 Alpha” (CATHOLIC UNIVERSITY INDUSTRY ACADEMIC COOPERATION FOUNDATION, priority 2010, published 2011).
# System: splenocytes from the mice vaccinated with Top2αC RNA/DCs
# Assay: IFN-γ ELISA of splenocytes stimulated with Top2αC-derived peptides
# Type: cell-based, mouse
# Settings: 1 μg/ml peptides, three days, compared to other peptides
# Protocol: The 5 Top2αC-derived peptides binding to MHC class I molecules (H-2 Kb) with a high score were selected by BIMAS and […], and in order to determine T lymphocyte epitopes of Top2αC, splenocytes from the mice vaccinated with Top2αC RNA/DCs were stimulated with Top2αC-derived peptides, and then IFN-γ production was determined by ELISA.
# Splenocytes (2×10^5 cells/200 μl) of a mouse vaccinated with Top2αC RNA/DCs were incubated with 1 μg/ml peptides in a round-bottomed 96-well plate. Three days later, the plate was centrifuged and 100 μl of the supernatant was removed from each well. The level of IFN-γ was determined by ELISA (eBioscience, San Diego, USA).
sequence,measurement,value
"DSDEDFSGL [p1327, Top2αC-derived peptide, location 1327-1355 as printed]",IFN-γ production,higher level
